In US4677108A, “4-oxo-pyrido[2,3-d]pyrimidinone derivatives” (Warner-Lambert Company, priority 1984, dated 1987):
pEC50, pIC50: −log10 of the molar value.

Tests used:
[1] = test system: a. coronaria (arteria coronaria); test: Isolated smooth muscle: inhibition of K+-depolarization contraction of vessel rings, a. coronaria; parameters: species or system rabbit; details: organ bath, mean diameter 0.5-1.0 mm, read-out: Concentration (IC50) effecting a semimaximal inhibition of the K+-depolarization contraction of vessel rings, a. coronaria
Excerpt: (§1) Of rabbits (vessel ring segments, a basilaris, a. coronaria, a. saphena) are mounted in an organ bath in a way to allow the measurement of isometric contractions. Contractile activity is elicited by a potassium depolarization in Tyrode's solution. This experimetnal set-up is a well known standard model for the identification of substances blocking the calcium channels opened during the potassium depolarization (Fleckenstein,Calcium Antagonism in Heart and Smooth Muscle, J. Wiley & Sons, 1983).
(§2) Concentrations (IC50, mol/l) of compounds
(§3) effecting a semimaximal inhibition of the K+-
(§4) depolarization contraction of vessel rings in the
(§5) organ bath. A. bas. = arteria basilaris, a. cor. =
(§6) arteria coronaria, a. saph. = arteria saphena of
(§7) the rabbit; mean diameter 0.5-1.0 mm.

[2] = test system: a. basilaris (arteria basilaris); test: Isolated smooth muscle: inhibition of K+-depolarization contraction of vessel rings, a. basilaris; parameters: species or system rabbit; details: organ bath, mean diameter 0.5-1.0 mm, read-out: Concentration (IC50) effecting a semimaximal inhibition of the K+-depolarization contraction of vessel rings, a. basilaris
Excerpt: as §1, §2, §3, §4, §5, §6, §7

[3] = test system: a. saphena (arteria saphena); test: Isolated smooth muscle: inhibition of K+-depolarization contraction of vessel rings, a. saphena; parameters: species or system rabbit; details: Oryctolagus cuniculus, organ bath, mean diameter 0.5-1.0 mm, read-out: Concentration (IC50) effecting a semimaximal inhibition of the K+-depolarization contraction of vessel rings, a. saphena
Excerpt: as §1, §2, §3, §4, §5, §6, §7

[4] = test system: isolated papillary muscles of the guinea-pig; test: Isolated papillary muscles: changes in the contraction amplitude; details: field excitation 250/minute; for activation at 1 µM: at ED100, read-out: Δ% (percent change of contraction amplitude versus control) at ED100; for EC100: read-out: ED100 (effective concentration, maximal effect), contraction amplitude; for pEC50: read-out: ED50 (effective concentration, semimaximal effect), contraction amplitude
Excerpt: Papillary muscles from the left ventricle of the guinea-pig are mounted, like isolated vessels, in an organ bath in a way to allow the measurement of isometric contractions. Electric excitation is achieved by means of field excitation at a frequency of 250/minute (duration of excitation 10 msec., amplitude supramaximal).
Changes in the contraction amplitude of isolated
papillary muscles of the guinea-pig (excitation
frequency 250/minute, duration of excitation 10 msec.,
excitation amplitude 10-20 V field excitation). IC =
inhibition concentration, ED = effective concentration
in mol/l. Indices 50 and 100 correspond to semi-
maximal and maximal effect. Δ% = percent change of
contraction amplitude versus control.

[5] = test system: spontaneously hypertensive rats (SHR); test: Spontaneously hypertensive rat: systolic blood pressure after oral administration; assay type: in vivo
Excerpt: This test model employing hypertension of genetic origin served to test Example Number 1(a) for its antihypertensive efficacy.
Effect of Example Number 1a on the systolic blood
pressure of spontaneously hypertensive rats (SHR)

[6] = test system: rats anesthetized with inactin; test: Anesthetized rat (inactin): blood pressure and heart rate; assay type: in vivo; details: 100 mg/kg ID (n=3)
Procedure: This test model using rats anesthetized with inactin served to test Example Number 1a in a dosage of 100 mg/kg ID (n=3). The heart rate remained unchanged whereas the blood pressure fell by 40% below the starting value (75 minutes PA).

[7] = Cavia porcellus, 10 msec., 10-20 V, maximal effect
[8] = Cavia porcellus, 10 msec., 10-20 V, semimaximal effect

## CCOC(=O)C1=C(C)Nc2ncn(C(C)C)c(=O)c2C1c1ccccc1 (racemic) [Example 3a, (±)-3,4,5,8-Tetrahydro-3-isopropyl-7-methyl-4-oxo-5-phenyl-pyrido[2,3-d]pyrimidine-6-carboxylic acid ethyl ester]
[1]
  pIC50: 7.35
[2]
  pIC50: 7.40

## CCOC(=O)C1=C(C)Nc2ncn(C(C)C)c(=O)c2C1c1ccccc1F (racemic) [Example 3, (±)-5-(2-Fluorophenyl)-3,4,5,8-tetrahydro-3-isopropyl-7-methyl-4-oxo-pyrido[2,3-d]pyrimidine-6-carboxylic acid ethyl ester]
[3]
  pIC50: 5.05
[4]; Cavia porcellus
  activation at 1 µM: 30%
[4]; [7]
  EC100: 1 µM
[4]; [8]
  pEC50: 7.66
[4]
  Δ% (percent change of contraction amplitude versus control) at ED50: +15%
[1]
  pIC50: 4.70
[2]
  pIC50: 4.70

## CCOC(=O)C1=C(C)Nc2nc[nH]c(=O)c2C1c1ccccc1[N+](=O)[O-] (racemic) [Example 1b, (±)-3,4,5,8-Tetrahydro-7-methyl-5-(2-nitrophenyl)-4-oxo-pyrido[2,3-d]pyrimidine-6-carboxylic acid ethyl ester]
[1]
  pIC50: ~6.00
[2]
  pIC50: ~6.40

## CCOC(=O)C1=C(C)Nc2nc[nH]c(=O)c2C1c1ccccc1F (racemic) [Example 1a, (±)-5-(2-Fluorophenyl)-3,4,5,8-tetrahydro-7-methyl-4-oxo-pyrido[2,3-d]pyrimidine-6-carboxylic acid ethyl ester]
[5]; 12.5 mg/kg oral, 30 min.
  Change of systol. blood pressure in percent: -11%
[5]; 12.5 mg/kg oral, 120 min.
  Change of systol. blood pressure in percent: -4%
[5]; 12.5 mg/kg oral, 240 min.
  Change of systol. blood pressure in percent: +2%
[5]; 12.5 mg/kg oral, 24 h
  Change of systol. blood pressure in percent: -1%
[5]; 25 mg/kg oral, 30 min.
  Change of systol. blood pressure in percent: -24%
[5]; 25 mg/kg oral, 120 min.
  Change of systol. blood pressure in percent: -2%
[5]; 25 mg/kg oral, 240 min.
  Change of systol. blood pressure in percent: -1%
[5]; 25 mg/kg oral, 24 h
  Change of systol. blood pressure in percent: +5%
[5]; 50 mg/kg oral, 30 min.
  Change of systol. blood pressure in percent: -32%
[5]; 50 mg/kg oral, 120 min.
  Change of systol. blood pressure in percent: -8%
[5]; 50 mg/kg oral, 240 min.
  Change of systol. blood pressure in percent: +1%
[5]; 50 mg/kg oral, 24 h
  Change of systol. blood pressure in percent: +4%
[5]; 100 mg/kg oral, 30 min.
  Change of systol. blood pressure in percent: -40%
[5]; 100 mg/kg oral, 120 min.
  Change of systol. blood pressure in percent: -19%
[5]; 100 mg/kg oral, 240 min.
  Change of systol. blood pressure in percent: +2%
[5]; 100 mg/kg oral, 24 h
  Change of systol. blood pressure in percent: -4%
[5]; oral, result in words
  antihypertensive effect after oral administration: good and, dose-dependent, lasting antihypertensive effect
[3]
  pIC50: 5.92
[6]
  heart rate: unchanged
[6]; 75 minutes PA
  blood pressure fell below the starting value: 40%
[4]; Cavia porcellus
  activation at 1 µM: 52%
[4]; [7]
  EC100: 1 µM
[4]; [8]
  pEC50: 7.82
[4]
  Δ% (percent change of contraction amplitude versus control) at ED50: +26%
[1]
  pIC50: 5.82
[2]
  pIC50: 5.74

## CCOC(=O)C1=C(C)Nc2nc[nH]c(=O)c2C1c1ccccc1 (racemic) [Example 1, (±)-3,4,5,8-Tetrahydro-7-methyl-4-oxo-5-phenylpyrido[2,3-d]pyrimidine-6-carboxylic acid ethyl ester]
[3]
  pIC50: 5.15
[4]; Cavia porcellus, at IC100, read-out: Δ% (percent change of contraction amplitude versus control) at IC100
  inhibition at 100 µM: 27%
[4]; Cavia porcellus, 10 msec., 10-20 V, maximal effect, read-out: IC100 (inhibition concentration, maximal effect), contraction amplitude
  IC100: 100 µM
[4]; Cavia porcellus, 10 msec., 10-20 V, semimaximal effect, read-out: IC50 (inhibition concentration, semimaximal effect), contraction amplitude
  pIC50: 4.70
[4]; at IC50
  Δ% (percent change of contraction amplitude versus control) at IC50: -13%
[1]
  pIC50: 5.00
[2]
  pIC50: 5.10
